In publication PMC9814792 (Communications Chemistry, 2022):

What was measured:
[1] = Aqueous stability in phosphate buffer by UHPLC; format: physicochemical; settings: for UHPLC peak integral, stability: method A
Experimental: (§1) For stability measurements BSO-OxOAc (1 mM) was dissolved in phosphate buffer (100 mM, pH 7.4). For reduction experiments BSO-OxOAc (2 mM) was dissolved in phosphate buffer (500 mM, pH 7.4). A 20 mM solution of AA in the same buffer was added in a 1:1 ratio. The samples were immediately measured on a Dionex UltiMate 3000 RS UHPLC system equipped with a Waters Acquity UPLC® BEH C18 column (3×50 mm, pore size 1.7 µm), and absorption detection at 230 nm with incubation at 20 °C (Gradients: Method A: 0.0−0.5 min: 5% eluent B in eluent A; 0.5–5.5 min: 5-95% eluent B; 5.5–8.0 min: 95 % eluent B (eluent A = 0.1% formic acid in water, eluent B = 0.1 % formic acid in acetonitrile), method B: 0.0 − 0.5 min: 5% eluent B in eluent A; 0.5–5.5 min: 5-95% eluent B; 5.5–7.1 min: 95 % eluent B (eluent A = 0.1% formic acid in water, eluent B = 0.1 % formic acid in methanol). Data points were taken every 30 min for 6 h and at 24 h and 24.5 h.

[2] = Reduction kinetics with 10-fold excess of ascorbic acid by UHPLC; format: physicochemical; settings: 10 mM AA; for UHPLC peak integral, reduction: method B
Experimental: as §1

CT26 cells = experiment: 72 h cell viability (MTT) assay; format: cell-based, murine; settings: CT26, 72 h
Experimental: (§2) Cells were seeded (3–4 ×10^3 cells/well) in 96-well plates in 100 µL and after 24 h recovery treated with 100 µL of compounds at the indicated concentrations in triplicates. After 72 h drug exposure cell viability was determined by 3-(4,5-dimethylthiazol-2-yl)-2,5-diphenyltetrazolium bromide (MTT)-vitality assay (EZ4U, Biomedica, Vienna, Austria) following the manufacturer’s recommendations, as published. Absorbance was measured at 450 nm (at 620 nm as reference) using the multimode plate reader Tecan Infinite 200 Pro (Zurich, Switzerland). Cytotoxicity was expressed as IC50 values calculated from full dose-response curves using the 4 parameter nonlinear regression model of GraphPad Prism 8 software (La Jolla, CA, USA).

F331, BEC, HaCat cells = experiment: 72 h cell viability (MTT) assay, non-malignant cell types; format: cell-based, human
Experimental: as §2

## CCCCS(=N)(=O)CCC(NC(=O)[O][Pt]1([O]C(C)=O)[O]C(=O)C(=O)[O]1)C(=O)O.NC1CCCCC1N (mixture of isomers) [BSO-OxOAc, (OC-6-34)-Acetato(((1 S)-3-(butylsulfonimidoyl)-1-carboxypropyl)carbamato)((1 R,2 R)-1,2-cyclohexanediamino)oxalatoplatinum(IV)]
[1]; 1 mM, 100 mM phosphate buffer pH 7.4, 20 °C
  calculated half-life, aqueous stability: ~ 240 h
[1]; t=0, 1 mM
  UHPLC peak integral, stability: 70.47 mAU
[1]; t=24 h, 1 mM
  UHPLC peak integral, stability: 66.25 mAU
[2]; 1 mM complex, 500 mM phosphate buffer pH 7.4, 20 °C
  t½ reduction kinetics: ~ 51 h
[2]; t=0, 1 mM
  UHPLC peak integral, reduction: 11.87 mAU
[2]; t=24 h, 1 mM
  UHPLC peak integral, reduction: 9.1 mAU
CT26 cells
  higher IC50 value as compared to oxaliplatin: > 58 fold
F331, BEC, HaCat cells
  activity against non-malignant cell types: widely inactive
